Experimental data published in US11324720B2, “Antiproliferative DNA polymerase inhibitor” (NEW YORK MEDICAL COLLEGE, priority 2018, dated 2022).

Tests used:
Assay type in all cases: cell-based, human
BxPC-3 cells [1] = experiment: DNA fiber fluorography dual labeling (IdU/CldU)
Text: (§1) In our search for Pol δ inhibitors, we focused on the identification of inhibitors that can inhibit Pol δ when it is actively replicating DNA. DNA fiber fluorography with dual labeling technique^24 provides a possibility that we can analyze the effect of zelpolib on ongoing DNA replication at a single molecule level. Both IdU and CldU are halogenated thymidine analogs that can be incorporated into DNA. Subsequent DNA fiber spreading and antibody detection are used to directly visualize the replicated DNA fiber. The incorporation of IdU gives rise to red fibers and CldU produces green fibers with subsequent antibody detection^24. Therefore, in this assay, the cells were first incubated with IdU for 20 minutes in the absence of zelpolib (FIG. 3B) to establish ongoing DNA replication and the basal replication rates of each individual DNA fibers. Subsequently, CldU were added to cell culture either with or without simultaneous addition of zelpolib. DNA replication were allowed for an additional hour. […] In order to be certain that this inhibition was not cell line dependent, we conducted an identical experiment on a triple-negative breast cancer cell line as well. […] The DNA fibers (FIG. 3C) from a single field of view (FIG. 9) were realigned for visual comparison.
(§2) To analyze the effect of zelpolib, DNA fiber fluorography was used with dual labeling technique as reported. Cells were seeded in 6-well plates (Cellstar) and allowed to attach for 24 hours before pulse labeled with 25 μM IdU for 20 min. Subsequently, cells were washed three times with PBS and pulse labeled with 250 μM of CldU (Sigma) for 60 min in the presence or absence of zelpolib. Cell lysis and fiber spreading were conducted according to Schwab & Niedzwiedz. IdU and CldU were detected by primary mouse anti-BrdU antibody (BD biosciences, 1:25) and rat anti-BrdU antibody (Abcam, 1:200) and secondary fluorescent antibodies Alexa anti-mouse 594 (ThermoFisher scientific, 1:625) and Alexa anti-rat 488 (ThermoFisher scientific, 1:200). DNA fibers were imaged on fluorescence microscope and fiber lengths were measured using Image-J software. Statistics were calculated using GraphPad prism software.

HCC1395 cells [2] = experiment: DNA fiber fluorography dual labeling (IdU/CldU); details: all three concentrations, zelpolib added with CldU for 60 min
Text: as §1, §2

BxPC-3 cells [3] = experiment: Cell proliferation assay, MTT method
Text: (§3) DNA replication precedes cell division. Thus, cancer cells cannot divide and proliferate without successful chromosomal duplication. A DNA polymerase inhibitor should inhibit cancer cell proliferation. We characterized the antiproliferative properties of zelpolib on a number of cell lines originated from pancreatic cancer (BxPC-3) and breast cancer (MCF7 for ER+ breast cancer). In addition, we developed a cisplatin resistant subline of a pancreatic cancer cell line, R-BxPC3 for our studies as well. We used the MTT method^25 for analyzing cell proliferation. This assay is based on the reduction of 3-(4,5-dimethylthiazol-2-yl)-2,5-diphenyltetrazolium bromide by live cells to an insoluble formazon, which were subsequently dissolved in DMSO and quantified by UV absorbance. Therefore, the cell number is proportional to the optical density in the established linear region. […] The plateau phenomena indicate inhibition of proliferation without cell killing, similar to these observed from hydroxyurea^26, aphidicolin^27, and to a certain extent, methotrexate treatments^28. Direct inhibition of DNA polymerase activity provides a unique mechanism that is not employed by any of the current cancer therapeutics. We selected a number of most widely prescribed chemotherapeutics with distinct mechanisms to compare their antiproliferative potential in the 2 cancer cell lines. We included alkylating agent cisplatin, antimetabolites methotrexate and 5-flourouracil (5FU)^29-31. […] Whereas the comparison with cisplatin is biphasic.
(§4) Human cancer cells (5×10^3-7.5×10^3) were initially seeded in 96-well plates (Cellstar) containing 0.2 ml media per well. After 24 hrs, these cells were treated with variable concentrations drug combinations for 48-72 hrs. Subsequently, 4,5-dimethylthiazol-2-yl-2,5-diphenyltetrazolium bromide (MTT) (20 μl of 5 mg/ml) was added to each well for 3 hrs. Formazan crystals were then dissolved in 150 μl DMSO and optical density was read at 490 nm^25. All experiments were performed in triplicates. Results were analyzed by GraphPad Prism. Data represent mean value±SEM for each concentration of inhibitor combinations.

MCF7 cells = experiment: Cell proliferation assay, MTT method
Text: as §3, §4

HCC1395 cells [4] = experiment: MTT assay with PARP inhibitors with or without zelpolib; details: 2.5 μM zelpolib, 48 hrs
Protocol: However, there have been minimal clinical benefits for HR-proficient cancers^37-41. Since zelpolib can inhibit HR, we explored the effect of zelpolib in combination with PARP inhibitors on HR-proficient cancer cells. The hypothesis is that zelpolib will lead to an HR-defect through inhibition of Pol δ and render HR-proficient cells sensitive to PARP inhibition. […] The cells were treated with increasing concentrations of PARP inhibitor Niraparib (FIG. 5B) or Rucaparib (FIG. 5C) in the absence or presence of 2.5 μM zelpolib for 48 hrs. The number of cells were then analyzed by MTT assay.
as §4

COC(=O)c1cc(-c2ccccc2)sc1NC(=S)NNC(=O)CCc1ccc(O)c(O)c1 [zelpolib]
inhibition of DNA fiber extension (BxPC-3 cells [1]; 20 μM, 60 minutes exposure, cell line not stated): about 40% | inhibition of ongoing cellular DNA replication (green/red fiber length ratio) (BxPC-3 cells [1]; BxPC-3, zelpolib added with CldU for 60 min): concentration dependent inhibition of ongoing cellular DNA replication | cellular uptake time (BxPC-3 cells [1]; inferred from fiber inhibition at 20 μM with 60 minutes total exposure): less than 30 minutes | inhibition of ongoing DNA replication (green/red fiber length ratio) (HCC1395 cells [2]): significant inhibition of ongoing DNA replication | antiproliferative activity compared with cisplatin (BxPC-3 cells [3]; BxPC-3, MTT): superior to cisplatin up to 10 μM | antiproliferative activity compared with methotrexate and 5-FU (BxPC-3 cells [3]; BxPC-3, MTT): superior to methotrexate and 5-FU at all concentrations | concentration at which antiproliferative effect reaches a plateau (BxPC-3 cells [3]; BxPC-3, MTT): about 5 μM | cytotoxicity (BxPC-3 cells [3]; zelpolib alone, cell lines not specified): minimal cell cytotoxicity | concentration at which antiproliferative effect reaches a plateau (MCF7 cells): about 5 μM | antiproliferative activity compared with methotrexate and 5-FU (MCF7 cells; 72 h): superior to methotrexate and 5-FU across the concentration range | antiproliferative activity, zelpolib versus cisplatin (MCF7 cells; 72 h): at least as effective as cisplatin in inhibiting MCF7 cell growth up to 5 μM | sensitisation of HCC1395 cells to Rucaparib (HCC1395 cells [4]; difference statistically significant up to 25 μM): behaved similarly to zelpolib and Niraparib combination | sensitisation of HCC1395 cells to Niraparib (HCC1395 cells [4]; differences significant up to 20 μM): increased the sensitivity of HCC1395 cells to Niraparib across the whole range of concentrations
